Patent publication US6936615B2, “Heteroaryl derivatives and their use as medicaments” (Zentaris GmbH, priority 2000, dated 2005)

How the values were obtained:
[1] = system: murine lymphocyte leukaemia L1210 (ATCC CCL-219); experiment: XTT test for cellular dehydrogenase activity (proliferation test), L1210; format: cell-based; conditions: Mus musculus, values determined from 5 substance concentrations, 45 h incubation + 3 h XTT, read-out: XTT-Assay IC50 L1210 (in-vitro cytotoxicity)
Protocol: (§1) In a proliferation test, the antiproliferative activity of the substance D-43411 was examined using established tumor cell lines. In the test used, the cellular dehydrogenation activity is determined, which makes it possible to determine the vitality of the cell and, indirectly, the cell count. The cell lines used are the human cervical carcinoma cell lines KB/HeLa (ATCC/CCL17), the murine lymphocyte leukaemia L1210 (ATCC CCL-219), the human breast adenocarcinoma line MCF7/ATCC HTB22) and the ovary adenocarcinoma line SKOV-3 (ATCC HTB77). These are established cell lines which are very well characterized and were obtained from ATCC and cultured.
(§2) The adherently growing tumor cell lines HeLa/KB, SKOV-3 and MCF7 and the L1210 leukaemia line, which grows in suspension, were cultivated under standard conditions in an incubator with gas inlet at 37° C., 5% CO2 and 95% atmospheric humidity. […]
(§3) For the XTT assay, 1 mg/ml of XTT (sodium 3′-[1-(phenylaminocarbonyl)-3,4-tetrazolium]-bis(4-methoxy-6-nitro)benzenesulfonic acid) is dissolved in RPMI-1640 medium without Phenol Red. […] The cell plates are then incubated in the incubator with gas inlet for a further 3 h, and the optical density (OD490nm) is determined in a photometer.
(§4) Using the OD490nm obtained, the inhibition in percent relative to the control is calculated. […]

[2] = system: human breast adenocarcinoma line MCF7 (ATCC HTB22); experiment: XTT test for cellular dehydrogenase activity (proliferation test), MCF7; format: cell-based; conditions: test period of 48 h
Protocol: as §1, §2, §3, §4

[3] = system: ovary adenocarcinoma line SKOV-3 (ATCC HTB77); experiment: XTT test for cellular dehydrogenase activity (proliferation test), SKOV-3; format: cell-based; conditions: Homo sapiens, SK-OV-3, values determined from 5 substance concentrations, 45 h incubation + 3 h XTT, read-out: XTT-Assay IC50 SKOV-3 (in-vitro cytotoxicity)
Protocol: as §1, §2, §3, §4

[4] = system: human cervical carcinoma cell lines KB/HeLa (ATCC/CCL17); experiment: XTT test for cellular dehydrogenase activity (proliferation test), KB/HeLa; format: cell-based; conditions: values determined from 5 substance concentrations, 45 h incubation + 3 h XTT, read-out: XTT-Assay IC50 KB/HeLa (in-vitro cytotoxicity)
Protocol: as §1, §2, §3, §4

| melting point [°C] | SMILES | IC50 [1] [ng/mL] | IC50 ([2]; Homo sapiens, values determined from 5 substance concentrations, read-out: XTT-Assay IC50 MCF7 (in-vitro cytotoxicity)) [ng/mL] | inhibition (antiproliferative effect) in MCF7 ([2]; at 3.16_g/ml) [%] | IC50 [3] [ng/mL] | IC50 [4] [ng/mL] |
| --- | --- | --- | --- | --- | --- | --- |
| – | COc1cc(OC)cc(N2CCN(C(=O)C3c4ccccc4NC4C=CC=CC43)CC2)c1 [D-43411] | < 0.3 | > 3160 | 18 | < 0.3 | < 0.3 |
| 146 to 148 | COc1cc(OC)cc(N2CCN(C(=O)c3ccnc4ccccc34)CC2)c1 | – | – | – | – | – |
